Reference: patent US10966426B2, “Herbicidal compositions comprising phenylpyrimidines” (BASF SE, priority 2016, dated 2021)
“And” between values parts separate entries of the source, which are not always exact repeats. Equal values may be shown once.

Columns and labels:
Assay type in all cases: in vivo
Papaver rhoeas = assay: greenhouse pre-emergence treatment, PAPRH; conditions: 20 DAT; for % activity, solo application: Table X6
Source text: (§1) The culture containers used were plastic pots containing loamy sand with approximately 3.0% of humus as substrate. The seeds of the test plants were sown separately for each species.
(§2) For the pre-emergence treatment, the active compounds, suspended or emulsified in water, were applied directly after sowing by means of finely distributing nozzles. The containers were irrigated gently to promote germination and growth and subsequently covered with transparent plastic hoods until the plants had rooted. This cover caused uniform germination of the test plants unless this was adversely affected by the active compounds.
(§3) Depending on the species, the plants were kept at 10-25° C. and 20-35° C., respectively.
(§4) The test period extended over 2 to 4 weeks. During this time, the plants were tended and their response to the individual treatments was evaluated.
(§5) Evaluation was carried out using a scale from 0 to 100. 100 means no emergence of the plants, or complete destruction of at least the above-ground parts, and 0 means no damage or normal course of growth. A good herbicidal activity is given at values of at least 70, and very good herbicidal activity is given at values of at least 85.
(§6) The respective stated components A and B, and if appropriate, C were formulated as a 10% by weight strength emulsion concentrate and, with addition of the amount of solvent system, introduced into the spray liquor used for applying the active compound. In the examples, the solvent used was water.
(§7) In the examples below, using the method of S. R. Colby (1967) “Calculating synergistic and antagonistic responses of herbicide combinations”, Weeds 15, p. 22ff., the value E, which is expected if the activity of the individual active compounds is only additive, was calculated. E=X+Y−(X·Y/100) where X=effect in percent using herbicide A at an application rate a; • Y=effect in percent using herbicide B at application rate b; • E=expected effect (in %) of herbicide A+herbicide B at application rates a+b.

Digitaria sanguinalis = assay: greenhouse post-emergence treatment, DIGSA; conditions: DIGSA
Summary of the method: (§8)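 Visual damage score 0–100 (0 = normal growth; 100 = no emergence/above-ground parts destroyed), read 2–4 wk post-treatment. Loamy sand, ~3.0% humus; seedlings grown in place or transplanted days before spraying; water as solvent; 10-25° C. or 20-35° C. per species. Combination expectations by Colby: E=X+Y−(X·Y/100).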

Apera spica-venti [1] = assay: greenhouse post-emergence treatment, APESV; conditions: APESV, 20 DAT
Protocol: as §1
For the post-emergence treatment, the test plants were grown to a plant height of from 3 to 15 cm, depending on the plant habit, and only then treated with the active compounds which had been suspended or emulsified in water. To this end, the test plants were either sown directly, and grown in the same containers, or they were first grown separately as seedlings and transplanted into the test containers a few days prior to treatment.
as §3, §4, §5, §6, §7

Alopecurus myosuroides [2] = assay: greenhouse pre-emergence treatment, ALOMY
Summary of the method: (§9)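 Pre-emergence spray of compounds, alone or as combinations formulated as 10% emulsion concentrate in water, directly after sowing in loamy sand (~3.0% humus); pots hooded until rooting, kept at 10-25° C or 20-35° C per species for 2 to 4 weeks. Damage scored 0-100 (100 = no emergence/complete destruction); Colby expected value E=X+Y−(X·Y/100).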

Apera spica-venti [3] = assay: greenhouse pre-emergence treatment, APESV; conditions: solo, 20 DAT
Summary of the method: as §9

Galium aparine = assay: greenhouse post-emergence treatment, GALAP; conditions: GALAP
Summary of the method: (§10)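 Post-emergence greenhouse spray on 3–15 cm plants, sown direct or transplanted a few days before treatment. Scored visually on a 0–100 scale after 2 to 4 weeks; expected additive effect computed by Colby: E=X+Y−(X·Y/100).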

Setaria viridis = assay: greenhouse pre-emergence treatment, SETVI; conditions: SETVI
Summary of the method: as §9

Polygonum convolvulus = assay: greenhouse pre-emergence treatment, POLCO; conditions: POLCO; for % activity, solo application: Table X1
Summary of the method: as §9

Echinocloa crus-galli [4] = assay: greenhouse pre-emergence treatment, ECHCG; conditions: 20 DAT
Source text: as §1, §2, §3, §4, §5, §6, §7

Alopecurus myosuroides [5] = assay: greenhouse post-emergence treatment, ALOMY; conditions: ALOMY
Summary of the method: as §8

Echinocloa crus-galli [6] = assay: greenhouse post-emergence treatment, ECHCG; conditions: ECHCG
Summary of the method: as §10

[7] = solo Ex. 5 500 gai/ha, 20 DAT, 2nd series of rows
[8] = Table X8, 20 DAT, solo Ex. 5 250 gai/ha
[9] = Table X13, 20 DAT, solo Ex. 5 31.25 gai/ha
[10] = solo Ex. 5 31.25 gai/ha, 20 DAT
[11] = Ex. 5 solo, 62.5 gai/ha, 20 DAT
[12] = Table X12, 20 DAT, solo Ex. 5 62.5 gai/ha
[13] = Table X12, 20 DAT, solo Ex. 5 125 gai/ha
[14] = Table X13, 20 DAT, solo Ex. 5 62.5 gai/ha

O=C(O)c1nc(C2CC2)ncc1-c1ccccc1Cl [Ex. 5]
% activity (Papaver rhoeas; solo Ex. 5 31.25 gai/ha): 0% | % activity, solo application (Papaver rhoeas; 31.25 gai/ha): 20% | % activity, solo application (Papaver rhoeas; 125 gai/ha): 85% | % activity (Papaver rhoeas; solo, 62.5 gai/ha): 70% | % activity, solo application (Digitaria sanguinalis; 62.5 gai/ha, 20 DAT, Table X3): 30% | % activity, solo application (Digitaria sanguinalis; 125 gai/ha, 20 DAT, Table X4): 50% | % activity, solo application (Digitaria sanguinalis; 125 gai/ha, 20 DAT, Table X5): 65% | % activity, solo application (Digitaria sanguinalis; 250 gai/ha, 20 DAT, Table X4): 70% | % activity, solo application (Digitaria sanguinalis; 250 gai/ha, 20 DAT, Table X5): 70% | % activity (Digitaria sanguinalis; 21 DAT, solo Ex. 5 125 gai/ha): 60% | % activity (Digitaria sanguinalis; 21 DAT, solo Ex. 5 250 gai/ha): 80% | % activity (Digitaria sanguinalis; solo Ex. 5 62.5 gai/ha, 20 DAT): 35% | % activity (Digitaria sanguinalis; solo Ex. 5 125 gai/ha, 21 DAT): 45% | % activity (Digitaria sanguinalis; solo Ex. 5 250 gai/ha, 21 DAT): 65% | % activity (Digitaria sanguinalis; [7]): 75% | % activity (Digitaria sanguinalis; Ex. 5 solo, 62.5 gai/ha, 21 DAT): 35% | % activity (Digitaria sanguinalis; [8]): 65% | % activity (Digitaria sanguinalis; solo, 62.5 gai/ha, 20 DAT): 35% | % activity (Digitaria sanguinalis; solo, 125 gai/ha, 20 DAT): 50% | % activity (Apera spica-venti [1]; solo Ex. 5 62.5 gai/ha): 75% | % activity (Apera spica-venti [1]; solo, 62.5 gai/ha): 70% | % activity (Apera spica-venti [1]; solo, 125 gai/ha): 80% | % activity (Apera spica-venti [1]; solo, 250 gai/ha): 85% and 90% | % activity (Alopecurus myosuroides [2]; [9]): 90% | % activity (Alopecurus myosuroides [2]; [10]): 90% | % activity (Alopecurus myosuroides [2]; solo Ex. 5 62.5 gai/ha, 20 DAT): 90% | % activity (Apera spica-venti [3]; 31.25 gai/ha): 75% | % activity (Apera spica-venti [3]; 125 gai/ha): 80% | % activity, solo application (Galium aparine; 125 gai/ha, 20 DAT, Table X4): 0% | % activity, solo application (Galium aparine; 125 gai/ha, 20 DAT, Table X5): 0% | % activity, solo application (Galium aparine; 250 gai/ha, 20 DAT, Table X4): 30% | % activity, solo application (Galium aparine; 250 gai/ha, 20 DAT, Table X5): 0% | % activity (Galium aparine; Ex. 5 solo, 31.25 gai/ha, 21 DAT): 10% | % activity (Galium aparine; [11]): 0% | % activity (Galium aparine; Ex. 5 solo, 250 gai/ha, 21 DAT): 25% | % activity (Galium aparine; solo Ex. 5 62.5 gai/ha, 20 DAT): 0% | % activity (Galium aparine; solo Ex. 5 125 gai/ha, 20 DAT): 0% | % activity (Galium aparine; solo Ex. 5 125 gai/ha, 21 DAT): 0% | % activity (Galium aparine; [8]): 20% | % activity (Galium aparine; [12]): 0% | % activity (Galium aparine; [13]): 0% | % activity (Galium aparine; solo, 62.5 gai/ha, 20 DAT): 0% | % activity (Galium aparine; solo, 125 gai/ha, 20 DAT): 0% | % activity (Galium aparine; solo, 250 gai/ha, 20 DAT): 30% | % activity, solo application (Setaria viridis; 31.25 gai/ha, 20 DAT, Table X6): 0% | % activity, solo application (Setaria viridis; 125 gai/ha, 20 DAT, Table X1): 45% | % activity, solo application (Setaria viridis; 125 gai/ha, 20 DAT, Table X2): 60% | % activity, solo application (Setaria viridis; 125 gai/ha, 20 DAT, Table X6): 60% | % activity, solo application (Setaria viridis; 250 gai/ha, 20 DAT, Table X1): 65% | % activity (Setaria viridis; Ex. 5 solo, 125 gai/ha, 20 DAT): 50% | % activity (Setaria viridis; 20 DAT, solo Ex. 5 62.5 gai/ha): 30% | % activity (Setaria viridis; 20 DAT, solo Ex. 5 125 gai/ha): 50% | % activity (Setaria viridis; [10]): 35% | % activity (Setaria viridis; solo Ex. 5 125 gai/ha, 20 DAT): 45% | % activity (Setaria viridis; Table X9, 21 DAT, solo Ex. 5 125 gai/ha): 50% | % activity (Setaria viridis; [9]): 20% | % activity (Setaria viridis; [14]): 35% | % activity (Setaria viridis; solo, 31.25 gai/ha, 20 DAT): 10% | % activity (Setaria viridis; solo, 62.5 gai/ha, 21 DAT): 45% | % activity (Setaria viridis; solo, 125 gai/ha, 20 DAT): 45% | % activity (Setaria viridis; solo, 125 gai/ha, 21 DAT): 60% | % activity (Setaria viridis; solo, 250 gai/ha, 21 DAT): 65% | % activity, solo application (Polygonum convolvulus; 62.5 gai/ha, 20 DAT): 60% | % activity, solo application (Polygonum convolvulus; 125 gai/ha, 20 DAT): 80% | % activity (Polygonum convolvulus; [11]): 65% | % activity (Polygonum convolvulus; Table X10, 20 DAT, solo Ex. 5 31.25 gai/ha): 60% | % activity (Polygonum convolvulus; Table X10, 20 DAT, solo Ex. 5 125 gai/ha): 80% | % activity (Polygonum convolvulus; [9]): 60% | % activity (Polygonum convolvulus; [14]): 75% | % activity (Polygonum convolvulus; Table X13, 20 DAT, solo Ex. 5 250 gai/ha): 90% | % activity (Polygonum convolvulus; Table X14, 20 DAT, solo Ex. 5 31.25 gai/ha): 60% | % activity (Polygonum convolvulus; solo, 31.25 gai/ha, 20 DAT): 35% | % activity (Polygonum convolvulus; solo, 62.5 gai/ha, 21 DAT): 70% | % activity (Polygonum convolvulus; solo, 125 gai/ha, 21 DAT): 85% | % activity (Echinocloa crus-galli [4]; Ex. 5 solo, 62.5 gai/ha): 85% | % activity (Echinocloa crus-galli [4]; solo, 31.25 gai/ha): 95% | % activity (Echinocloa crus-galli [4]; solo, 125 gai/ha): 95% | % activity, solo application (Alopecurus myosuroides [5]; 62.5 gai/ha, 20 DAT, Table X3): 75% | % activity, solo application (Alopecurus myosuroides [5]; 125 gai/ha, 20 DAT, Table X7): 80% | % activity, solo application (Alopecurus myosuroides [5]; 250 gai/ha, 20 DAT, Table X5): 85% | % activity, solo application (Alopecurus myosuroides [5]; 250 gai/ha, 20 DAT, Table X7): 75% | % activity (Alopecurus myosuroides [5]; solo Ex. 5 15 gai/ha, 20 DAT, 2nd series of rows): 80% | % activity (Alopecurus myosuroides [5]; solo Ex. 5 62.5 gai/ha, 20 DAT): 70% and 68% | % activity (Alopecurus myosuroides [5]; solo Ex. 5 62.5 gai/ha, 20 DAT, 2nd series of rows): 70% | % activity (Alopecurus myosuroides [5]; solo Ex. 5 125 gai/ha, 20 DAT): 70% | % activity (Alopecurus myosuroides [5]; solo Ex. 5 250 gai/ha, 20 DAT): 73% | % activity (Alopecurus myosuroides [5]; solo Ex. 5 250 gai/ha, 20 DAT, 2nd series of rows): 80% | % activity (Alopecurus myosuroides [5]; solo Ex. 5 250 gai/ha, 21 DAT): 80% | % activity (Alopecurus myosuroides [5]; solo Ex. 5 500 gai/ha, 20 DAT): 78% | % activity (Alopecurus myosuroides [5]; [7]): 80% | % activity (Alopecurus myosuroides [5]; Table X12, 20 DAT, solo Ex. 5 31.25 gai/ha): 70% | % activity (Alopecurus myosuroides [5]; [12]): 70% | % activity (Alopecurus myosuroides [5]; [13]): 80% | % activity (Alopecurus myosuroides [5]; solo, 62.5 gai/ha, 20 DAT): 75% | % activity (Alopecurus myosuroides [5]; solo, 125 gai/ha, 20 DAT): 80% and 75% | % activity (Alopecurus myosuroides [5]; solo, 250 gai/ha, 20 DAT): 80% | % activity, solo application (Echinocloa crus-galli [6]; 62.5 gai/ha, 20 DAT, Table X3): 65% | % activity (Echinocloa crus-galli [6]; solo Ex. 5 125 gai/ha, 21 DAT): 65% | % activity (Echinocloa crus-galli [6]; solo Ex. 5 250 gai/ha, 21 DAT): 65% | % activity (Echinocloa crus-galli [6]; [13]): 65%
